Results from patent publication US20230339863A1, “INDAZOLE DERIVATIVES AS CANNABINOID RECEPTOR PARTIAL AGONISTS” (RESEARCH TRIANGLE INSTITUTE, priority 2020, published 2023).

Columns and labels:
[1] = biological target: human CB1 (Homo sapiens (Human), UniProt P21554); assay: In vitro cannabinoid receptor activity assay (calcium mobilization, FLIPR) in CHO cells expressing human CB1 and Gαq16; format: cell-based; conditions: for EC50: CHO cells, hCB1, calcium fluorescence, read-out: hCB1 Ca EC50; for hCB1 Ca Span: percentage of the maximum CP55940 signal
Experimental: (§1) In vitro cannabinoid receptor activity assay. Chinese Hamster Ovary (CHO) cells stably expressing either human CB1 or CB2 cDNA and the promiscuous G-protein Gαq16 were transferred to each well of a black Costar 96-well optical bottom plate (Corning Corporation). Each plate was incubated at 37° C. for 24 hr to confluence. The culture media was removed from the plates and cells were subsequently loaded with a fluorescent calcium probe (Calcium 5 dye, Molecular Devices) at a final loading concentration of 2 μM in a HBSS-based buffer containing 20 mM HEPES, 1% BSA and 10 μM Probenecid (Sigma) in a total volume of 225 μl. Cells were incubated at 37° C. for 1 hr and then stimulated with various concentrations of a test agent using a FLIPR Tetra plate-reader, which automatically added the agonist at 10× concentration to each well after reading baseline values for ˜17 sec. Agonist-mediated change in fluorescence (488 nm excitation, 525 nm emission) was monitored in each well at 1 sec intervals for 60 sec and reported for each well. Data were analyzed using Prism software (GraphPad). Non-linear regression analysis was performed to fit data and obtain maximum response (Emax), effective concentration for 50% response (EC50), correlation coefficient (r2) and other parameters. All experiments were performed 3-6 times to ensure reproducibility.
(§2) Reference is made to the following reference, hereby incorporated by reference with regard to such assay, Seltzman, et al., Peripherally Selective Cannabinoid 1 Receptor (CB1R) Agonists for the Treatment of Neuropathic Pain, J Med Chem. 2016 Aug. 25; 59 (16):7525-43. doi: 10.1021/acs.jmedchem.6b00516. Epub 2016 Aug. 10.

[2] = biological target: human CB2 (Homo sapiens (Human), UniProt P34972); assay: In vitro cannabinoid receptor activity assay (calcium mobilization, FLIPR) in CHO cells expressing human CB2 and Gαq16; format: cell-based; conditions: for EC50: CHO cells, hCB2, calcium fluorescence, read-out: hCB2 Ca EC50; for hCB2 Ca Span: percentage of the maximum CP55940 signal
Experimental: as §1, §2

| SMILES | EC50 [1] | hCB1 Ca Span [1] | EC50 [2] | hCB2 Ca Span [2] |
| --- | --- | --- | --- | --- |
| C[C@@H](NC(=O)c1nn(Cc2ccc(F)cc2)c2ccccc12)c1cccc(C(N)=O)c1 [Example 10, N-[(1R)-1-(3-Carbamoylphenyl)ethyl]-1-[(4-fluorophenyl)methyl]-1H-indazole-3-carboxamide] | 490 nM | 19% | 660 nM | 25% |
| CC(c1ccc(F)cc1)n1nc(C(=O)NC(C)(C)c2cccc(C(N)=O)c2)c2ccccc21 (stereo not shown) [Example 14, N-[2-(3-Carbamoylphenyl)propan-2-yl]-1-[1-(4-fluorophenyl)ethyl]-1H-indazole-3-carboxamide] | 240 nM | 76% | > 10000 nM | – |
| CC(C)(NC(=O)c1nn(CC2CCC(F)(F)CC2)c2ccccc12)c1cccc(C(N)=O)c1 [Example 15, N-[2-(3-Carbamoylphenyl)propan-2-yl]-1-[(4,4-difluorocyclohexyl)methyl]-1H-indazole-3-carboxamide] | 15 nM | 86% | 51 nM | 38% |
| CC(C)(NC(=O)c1nn(CC2CCOCC2)c2ccccc12)c1cccc(C(N)=O)c1 [Example 16, N-[2-(3-Carbamoylphenyl)propan-2-yl]-1-(oxan-4-ylmethyl)-1H-indazole-3-carboxamide] | 140 nM | 92% | 63 nM | 57% |
| CCCCCn1nc(C(=O)NC(C)(C)c2cccc(C(N)=O)c2)c2ccccc21 [Example 17, N-[2-(3-Carbamoylphenyl)propan-2-yl]-1-pentyl-1H-indazole-3-carboxamide] | 220 nM | 24% | 180 nM | 43% |
| CC(C)(NC(=O)c1nn(CCCCCF)c2ccccc12)c1cccc(C(N)=O)c1 [Example 18, N-[2-(3-Carbamoylphenyl)propan-2-yl]-1-(5-fluoropentyl)-1H-indazole-3-carboxamide] | 78 nM | 27% | 84 nM | 35% |
| CC(C)(NC(=O)c1nn(CCCCC(F)(F)F)c2ccccc12)c1cccc(C(N)=O)c1 [Example 19, N-[2-(3-Carbamoylphenyl)propan-2-yl]-1-(5,5,5-trifluoropentyl)-1H-indazole-3-carboxamide] | 150 nM | 64% | 480 nM | 39% |
| CC(C)(NC(=O)c1nn(Cc2ccc(F)cc2)c2ccccc12)c1cccc(NC(N)=O)c1 [Example 21, N-{2-[3-(Carbamoylamino)phenyl]propan-2-yl}-1-[(4-fluorophenyl)methyl]-1H-indazole-3-carboxamide] | 1600 nM | 34% | 160 nM | 34% |
| CC(C)(NC(=O)c1nn(CC2CCC(F)(F)CC2)c2ccccc12)c1cccc(NC(N)=O)c1 [Example 22, N-{2-[3-(Carbamoylamino)phenyl]propan-2-yl}-1-[(4,4-difluorocyclohexyl)methyl]-1H-indazole-3-carboxamide] | 160 nM | 89% | 58 nM | 51% |
| CC(C)(NC(=O)c1nn(CC2CCOCC2)c2ccccc12)c1cccc(NC(N)=O)c1 [Example 23, N-{2-[3-(Carbamoylamino)phenyl]propan-2-yl}-1-(oxan-4-ylmethyl)-1H-indazole-3-carboxamide] | 1200 nM | 91% | 94 nM | 61% |
| CCCCCn1nc(C(=O)NC(C)(C)c2cccc(NC(N)=O)c2)c2ccccc21 [Example 24, N-{2-[3-(Carbamoylamino)phenyl]propan-2-yl}-1-pentyl-1H-indazole-3-carboxamide] | 1300 nM | 52% | 320 nM | 47% |
